Experimental data from patent publication US20240376607A1, “METHOD AND COMPOSITION FOR TREATING DILUTION STEAM GENERATOR SYSTEMS” (BL Technologies, Inc., priority 2021, published 2024).
“Also recorded” adds a separate entry of the source.

Assay: Electrochemical corrosion rate measurement (Rp/Ec trend) in DSG water
Conditions: DSG Water B, 100 ppm active
Experimental: Electrochemical measurements were carried out using Gamry 600+ Potentiostat coupled with DC105™ Corrosion Techniques Software. Experiments were performed with a conventional three-electrode electrochemical cell and by employing the Rp/Ec trend technique. All tests were carried out for 24 hours at pH=8.2 to 8.8 and at T=22±0.2° C. (maintained with a recirculating water bath). A Teflon® liner was used to avoid filmer loss to the corrosion cell. The corrosion rates are measured in milli-inch per year (mpy). Pre-cleaned low carbon steel (LCS) coupons having a total surface area of 2.95 in^2 and a density of 7.87 g/cm^3 were used for testing the corrosion inhibitor treatments.

For octenyl succinic acid [OSA], the “corrosion inhibition (FIG. 1)” value (LCS coupons) was “inhibit corrosion; also recorded: not as robust as the Polyamine sample” and the “corrosion rate (FIG. 2)” value (rate it increases to, 20 hours) was 8 mpy.
